Experimental data: patent EP3046573B1, “AMYLIN ANALOGUES” (Zealand Pharma A/S, priority 2013, dated 2015)
Numbered stars: 1 amine (or outer) side, 2 acyl side, 3 side chain; on linkers, the order of the positions; unused ones are H or OH. Bridge positions count the residues as written; N and C are the ends. Square brackets hold non-standard residues; d marks the D form. Peptide text beside a SMILES is read from it. * marks the point of attachment. C20 diacid = O=C(O)CCCCCCCCCCCCCCCCCCC(=O)*; Arachidoyl = CCCCCCCCCCCCCCCCCCCC(=O)*; γGlu = O=C(O)[C@H](CCC(=O)[*:2])N[*:1]; NMeI = CC[C@H](C)[C@H](NC)C(=O)O; Orn = NCCC[C@H](N)C(=O)O; Sar = CNCC(=O)O

Experiment: Solubility assessment (turbidity absorbance at 325 nm)
Assay type: physicochemical
Conditions: stock 2 mg/ml diluted 1:1, ambient temperature (typically 25°C), n=1; for Solubility, Acetate buffer pH 4: 100 mM acetate buffer pH 4.0; for Solubility, Acetate buffer pH 5: 100 mM acetate buffer pH 5.0; for Solubility, Histidine buffer pH 6: 100 mM histidine buffer pH 6.0; for Solubility, Histidine buffer pH 7: 100 mM histidine buffer pH 7.0; for Solubility, Phosphate buffer pH 6: 100 mM phosphate buffer pH 6.0; for Solubility, Phosphate buffer pH 7: 100 mM phosphate buffer pH 7.0; for Solubility, Phosphate buffer pH 7.5: 100 mM phosphate buffer pH7.5
Method: A stock solution of the test peptide (2 mg/ml; determined from the weighed amount of peptide) in demineralized water adjusted to pH 2.5 with HCI was prepared, and aliquots were diluted 1:1 in 100 mM acetate buffer (pH 4.0 and pH 5.0), 100 mM histidine buffer (pH 6.0 and pH 7.0) and 100 mM phosphate buffer (pH 6.0, pH 7.0 and pH7.5), respectively, and loaded in a standard flat-bottom, non-sterile 96-well UV Microplate. The absorbance of samples (single samples, n=1) at 280 and 325 nm was measured in an absorbance-based plate reader, which was preheated to ambient temperature (typically 25°C). The turbidity absorbance criterion for a peptide solubility of ≥ 1 mg/ml was an absorbance at 325 nm of ≤ 0.02 absorbance units (which is 5 to 6 times the standard deviation of 8 buffer samples in a plate). Solubility data for peptides of the invention, pramlintide, and for a comparison pramlintide derivative denoted NN96 (see Example 5 below for details) are shown in Table 1, below. Table 1. Solubility data for compounds of the invention.

CC[C@H](C)[C@@H](C(=O)N[C@@H](CC(C)C)C(=O)N[C@@H](CO)C(=O)N[C@@H](CO)C(=O)N[C@H](C(=O)N[C@@H](CC(N)=O)C(=O)N[C@H](C(=O)NCC(=O)N[C@@H](CO)C(=O)N[C@@H](CC(N)=O)C(=O)N[C@H](C(=O)N1CCC[C@H]1C(N)=O)[C@@H](C)O)C(C)C)[C@@H](C)O)N(C)C(=O)[C@H](C)NC(=O)CN(C)C(=O)[C@H](Cc1ccccc1)NC(=O)[C@@H](CC(N)=O)NC(=O)[C@H](CC(N)=O)NC(=O)[C@H](CO)NC(=O)[C@H](CO)NC(=O)[C@H](Cc1c[nH]cn1)NC(=O)[C@H](Cc1c[nH]cn1)NC(=O)[C@H](CC(C)C)NC(=O)[C@H](Cc1ccccc1)NC(=O)[C@H](CCC(=O)O)NC(=O)[C@H](C)NC(=O)[C@H](CC(C)C)NC(=O)[C@H](CCCNC(=N)N)NC(=O)[C@H](CCC(N)=O)NC(=O)[C@@H](NC(=O)[C@H](C)NC(=O)[C@@H]1CSSC[C@H](NC(=O)[C@H](CCCNC(=N)N)NC(=O)CC[C@H](NC(=O)CCCCCCCCCCCCCCCCCCC(=O)O)C(=O)O)C(=O)N[C@@H](CC(N)=O)C(=O)N[C@@H]([C@@H](C)O)C(=O)N[C@@H](C)C(=O)N[C@@H]([C@@H](C)O)C(=O)N1)[C@@H](C)O [Compound 33, [19CD]-isoGlu-RC()NTATC()ATQRLAEFLHHSSN-DAsn-F-Gly(Me)-A-Ile(Me)-LSSTNVGSNTP-NH2] ({C20 diacid-γGlu}-RCNTATCATQRLAEFLHHSSN[dN]F[Sar]A[NMeI]LSSTNVGSNTP-NH2; disulfide 2-7)
SS (SS indicates solubility ≥ 1mg/ml): Solubility, Acetate buffer pH 4 | Solubility, Acetate buffer pH 5 | Solubility, Histidine buffer pH 6 | Solubility, Histidine buffer pH 7 | Solubility, Phosphate buffer pH 6 | Solubility, Phosphate buffer pH 7 | Solubility, Phosphate buffer pH 7.5

CC[C@H](C)[C@@H](C(=O)N[C@@H](CC(C)C)C(=O)N[C@@H](CO)C(=O)N[C@@H](CO)C(=O)N[C@H](C(=O)N[C@@H](CC(N)=O)C(=O)N[C@H](C(=O)NCC(=O)N[C@@H](CO)C(=O)N[C@@H](CC(N)=O)C(=O)N[C@H](C(=O)N1CCC[C@H]1C(N)=O)[C@@H](C)O)C(C)C)[C@@H](C)O)N(C)C(=O)[C@H](C)NC(=O)CN(C)C(=O)[C@H](Cc1ccccc1)NC(=O)[C@H](CC(N)=O)NC(=O)[C@H](CC(N)=O)NC(=O)[C@H](CO)NC(=O)[C@H](CO)NC(=O)[C@H](CCCNC(=N)N)NC(=O)[C@H](Cc1c[nH]cn1)NC(=O)[C@H](CC(C)C)NC(=O)[C@H](Cc1ccccc1)NC(=O)[C@H](CCC(=O)O)NC(=O)[C@H](C)NC(=O)[C@H](CC(C)C)NC(=O)[C@H](CCCNC(=N)N)NC(=O)[C@H](CCC(N)=O)NC(=O)[C@@H](NC(=O)[C@H](C)NC(=O)[C@@H]1CSSC[C@H](NC(=O)[C@H](CCCCN)NC(=O)CC[C@H](NC(=O)CCCCCCCCCCCCCCCCCCC(=O)O)C(=O)O)C(=O)N[C@@H](CC(N)=O)C(=O)N[C@@H]([C@@H](C)O)C(=O)N[C@@H](C)C(=O)N[C@@H]([C@@H](C)O)C(=O)N1)[C@@H](C)O [Compound 57, [19CD]-isoGlu-KC()NTATC()ATQRLAEFLHRSSNNF-Gly(Me)-A-Ile(Me)-LSSTNVGSNTP-NH2] ({C20 diacid-γGlu}-KCNTATCATQRLAEFLHRSSNNF[Sar]A[NMeI]LSSTNVGSNTP-NH2; disulfide 2-7)
SS (SS indicates solubility ≥ 1mg/ml): Solubility, Acetate buffer pH 4 | Solubility, Acetate buffer pH 5 | Solubility, Histidine buffer pH 6 | Solubility, Histidine buffer pH 7 | Solubility, Phosphate buffer pH 6 | Solubility, Phosphate buffer pH 7 | Solubility, Phosphate buffer pH 7.5

CC[C@H](C)[C@@H](C(=O)N[C@@H](CC(C)C)C(=O)N[C@@H](CO)C(=O)N[C@@H](CO)C(=O)N[C@H](C(=O)N[C@@H](CC(N)=O)C(=O)N[C@H](C(=O)NCC(=O)N[C@@H](CO)C(=O)N[C@@H](CC(N)=O)C(=O)N[C@H](C(=O)N1CCC[C@H]1C(N)=O)[C@@H](C)O)C(C)C)[C@@H](C)O)N(C)C(=O)[C@H](C)NC(=O)CN(C)C(=O)[C@H](Cc1ccccc1)NC(=O)[C@H](CC(N)=O)NC(=O)[C@H](CC(N)=O)NC(=O)[C@H](CO)NC(=O)[C@H](CO)NC(=O)[C@H](Cc1c[nH]cn1)NC(=O)[C@H](Cc1c[nH]cn1)NC(=O)[C@H](CC(C)C)NC(=O)[C@H](Cc1ccccc1)NC(=O)[C@H](CCC(=O)O)NC(=O)[C@H](C)NC(=O)[C@H](CC(C)C)NC(=O)[C@H](CCCNC(=N)N)NC(=O)[C@H](CCC(N)=O)NC(=O)[C@@H](NC(=O)[C@H](C)NC(=O)[C@@H]1CSSC[C@H](NC(=O)[C@H](CCCN)NC(=O)CC[C@H](NC(=O)CCCCCCCCCCCCCCCCCCC(=O)O)C(=O)O)C(=O)N[C@@H](CC(N)=O)C(=O)N[C@@H]([C@@H](C)O)C(=O)N[C@@H](C)C(=O)N[C@@H]([C@@H](C)O)C(=O)N1)[C@@H](C)O [Compound 65, [19CD]-isoGlu-Orn-C()NTATC()ATQRLAEFLHHSSNNF-Gly(Me)-A-Ile(Me)-LSSTNVGSNTP-NH2] ({C20 diacid-γGlu}-[Orn]CNTATCATQRLAEFLHHSSNNF[Sar]A[NMeI]LSSTNVGSNTP-NH2; disulfide 2-7)
SS (SS indicates solubility ≥ 1mg/ml): Solubility, Acetate buffer pH 4 | Solubility, Acetate buffer pH 5 | Solubility, Histidine buffer pH 6 | Solubility, Histidine buffer pH 7 | Solubility, Phosphate buffer pH 6 | Solubility, Phosphate buffer pH 7 | Solubility, Phosphate buffer pH 7.5

CCCCCCCCCCCCCCCCCCCC(=O)N[C@@H](CCC(=O)N[C@@H](CCCNC(=N)N)C(=O)N[C@H]1CSSC[C@@H](C(=O)N[C@@H](C)C(=O)N[C@H](C(=O)N[C@@H](CCC(N)=O)C(=O)N[C@@H](CCCNC(=N)N)C(=O)N[C@@H](CC(C)C)C(=O)N[C@@H](C)C(=O)N[C@@H](CCC(=O)O)C(=O)N[C@@H](Cc2ccccc2)C(=O)N[C@@H](CC(C)C)C(=O)N[C@@H](Cc2c[nH]cn2)C(=O)N[C@@H](CCCNC(=N)N)C(=O)N[C@@H](CO)C(=O)N[C@@H](CO)C(=O)N[C@@H](CC(N)=O)C(=O)N[C@@H](CC(N)=O)C(=O)N[C@@H](Cc2ccccc2)C(=O)N(C)CC(=O)N[C@@H](C)C(=O)N(C)[C@H](C(=O)N[C@@H](CC(C)C)C(=O)N[C@@H](CO)C(=O)N[C@@H](CO)C(=O)N[C@H](C(=O)N[C@@H](CC(N)=O)C(=O)N[C@H](C(=O)NCC(=O)N[C@@H](CO)C(=O)N[C@@H](CC(N)=O)C(=O)N[C@H](C(=O)N2CCC[C@H]2C(N)=O)[C@@H](C)O)C(C)C)[C@@H](C)O)[C@@H](C)CC)[C@@H](C)O)NC(=O)[C@H]([C@@H](C)O)NC(=O)[C@H](C)NC(=O)[C@H]([C@@H](C)O)NC(=O)[C@H](CC(N)=O)NC1=O)C(=O)O [Compound 94, [Eicosanoyl]-isoGlu-RC()NTATC()ATQRLAEFLHRSSNNF-Gly(Me)-A-Ile(Me)-LSSTNVGSNTP-NH2] ({Arachidoyl-γGlu}-RCNTATCATQRLAEFLHRSSNNF[Sar]A[NMeI]LSSTNVGSNTP-NH2; disulfide 2-7)
SS (SS indicates solubility ≥ 1mg/ml): Solubility, Acetate buffer pH 4 | Solubility, Acetate buffer pH 5 | Solubility, Histidine buffer pH 6 | Solubility, Histidine buffer pH 7 | Solubility, Phosphate buffer pH 6 | Solubility, Phosphate buffer pH 7 | Solubility, Phosphate buffer pH 7.5
